These are literature values, as cited in article PMC8838197, “Coumarin-Resveratrol-Inspired Hybrids as Monoamine Oxidase B Inhibitors: 3-Phenylcoumarin versus trans-6-Styrylcoumarin” (Molecules, 2022).

This data set concerns MAO-B. Set-up: pIC50 MAO-B: unit not given here. The conditions noted are these: cited from earlier work; for pIC50 MAO-B: Table S8.

As to `Cc1ccc2oc(=O)c(-c3ccccc3)cc2c1` [Compound 1], the “pIC50 MAO-B” value is on record as 6.547.

Take `COc1ccc(-c2cc3cc(C)ccc3oc2=O)cc1` [Compound 2]: the “pIC50 MAO-B” value was 7.884.

On to `COc1cc(OC)cc(-c2cc3cc(C)ccc3oc2=O)c1` [Compound 3], for which the “pIC50 MAO-B” value is recorded as 8.047.

As to `COc1cc(-c2cc3cc(C)ccc3oc2=O)cc(OC)c1OC` [Compound 4], the “pIC50 MAO-B” value is 6.794.

`COc1cccc(-c2cc3cc(C)ccc3oc2=O)c1` [Compound 5, 3-(3′-methoxyphenyl)-6-methylcoumarin]: the “pIC50 MAO-B” value is 9.096. For the same compound, the “activity against MAO-B isoform” value (data set compounds) is given as “picomolar range”.

`COc1ccccc1-c1cc2cc(C)ccc2oc1=O` [Compound 6]: the “pIC50 MAO-B” value is 6.808. Further, the “MAO-B pIC50” value (data set compounds) is recorded as over 6.5.

On to `Cc1ccc2oc(=O)c(-c3ccccc3Br)cc2c1` [Compound 8], for which the “pIC50 MAO-B” value is listed as 7.957. In addition, the “MAO-B pIC50” value (data set compounds) is listed as over 6.5.

As for `COc1ccc(-c2cc3cc(C)cc(Br)c3oc2=O)cc1` [Compound 9], the “pIC50 MAO-B” value is 8.491.

On to `COc1cc(OC)cc(-c2cc3cc(C)cc(Br)c3oc2=O)c1` [Compound 10], for which the “pIC50 MAO-B” value is 8.148. Moreover, the “MAO-B pIC50” value (data set compounds) is over 6.5.

Take `COc1ccc2oc(=O)c(-c3cccc(C)c3)cc2c1` [Compound 12]: the “pIC50 MAO-B” value was 7.768. Also, the “MAO-B pIC50” value (data set compounds) was over 6.5.

In the case of `COc1ccc2oc(=O)c(-c3ccc(C)cc3)cc2c1` [Compound 13], the “pIC50 MAO-B” value was 8.818.

For `CC(=O)COc1ccc2oc(=O)c(-c3ccc(C)cc3)cc2c1` [Compound 15], the “pIC50 MAO-B” value was 5.258.

Turning to `Cc1ccc(-c2cc3cc(OC4CCCC4)ccc3oc2=O)cc1` [Compound 16], the “pIC50 MAO-B” value is reported as 4.84.

Regarding `Cc1cccc(-c2cc3cc(C)ccc3oc2=O)c1` [Compound 18], the “pIC50 MAO-B” value is recorded as 7.824.

As for `COc1ccc(-c2cc3cc(C)ccc3oc2=O)cc1OC` [Compound 19], the “pIC50 MAO-B” value is listed as 8.564.

Regarding `COc1cc(-c2cc3cc(C)ccc3oc2=O)ccc1Br` [Compound 20], the “pIC50 MAO-B” value is reported as 9.131. Moreover, the “MAO-B pIC50” value (data set compounds) was over 6.5.

On to `COc1ccc(-c2cc3cc(C)ccc3oc2=O)cc1Br` [Compound 21], for which the “pIC50 MAO-B” value is given as 8.488.

In the case of `COc1cc(OC)c(Br)c(-c2cc3cc(C)ccc3oc2=O)c1` [Compound 22], the “pIC50 MAO-B” value is 4.267.

For `CC(=O)COc1cccc(-c2cc3cc(C)ccc3oc2=O)c1` [Compound 25], the “pIC50 MAO-B” value is on record as 6.745.

With `COc1ccc(-c2c(O)c3ccccc3oc2=O)cc1` [Compound 26], the “pIC50 MAO-B” value was 4.157.

On to `COc1ccc(-c2c(O)c3cc(C)ccc3oc2=O)cc1` [Compound 27], for which the “pIC50 MAO-B” value was 4.494.

`COc1ccc(-c2c(O)c3cc(C)ccc3oc2=O)cc1Cl` [Compound 29]: the “pIC50 MAO-B” value is 4.37.

In the case of `COc1cccc2cc(-c3ccccc3)c(=O)oc12` [Compound 34], the “pIC50 MAO-B” value is 6.824.

`COc1cccc2cc(-c3ccc(Br)cc3)c(=O)oc12` [Compound 35]: the “pIC50 MAO-B” value is given as 5.48.

Regarding `Cc1cccc2cc(-c3ccc(Br)cc3)c(=O)oc12` [Compound 39], the “pIC50 MAO-B” value is listed as 7.701. Besides, where the note is “data set compounds”, the “MAO-B pIC50” value is recorded as over 6.5.

As to `O=c1oc2ccccc2cc1-c1ccccc1` [Compound 40], the “pIC50 MAO-B” value is 4.928.

Regarding `Cc1ccc(C(=O)Nc2cc3ccccc3oc2=O)cc1` [Compound 42], the “pIC50 MAO-B” value is 5.099.

For `COc1ccc(C(=O)Nc2cc3ccccc3oc2=O)cc1` [Compound 44], the “pIC50 MAO-B” value was 4.516.

Consider `O=C(Nc1cc2ccccc2oc1=O)c1ccc(Cl)cc1` [Compound 45], for which the “pIC50 MAO-B” value is 5.71.

Consider `COc1ccc(C(=O)Nc2cc3ccccc3oc2=O)cc1OC` [Compound 46], for which the “pIC50 MAO-B” value is 4.234.

`COc1cc(C(=O)Nc2cc3ccccc3oc2=O)cc(OC)c1OC` [Compound 47]: the “pIC50 MAO-B” value is on record as 4.139.

Take `O=C(Nc1cc2ccccc2oc1=O)c1ccc(Cl)c(Cl)c1` [Compound 48]: the “pIC50 MAO-B” value is on record as 5.225.

Take `O=C(Nc1cc2ccccc2oc1=O)C1CCCCC1` [Compound 49]: the “pIC50 MAO-B” value is recorded as 4.301.

Take `COc1ccc(-c2cc3cc(OC)ccc3oc2=O)cc1` [Compound 52]: the “pIC50 MAO-B” value was 7.143.

For `COc1ccc(-c2cc3cc(Br)ccc3oc2=O)cc1` [Compound 53], the “pIC50 MAO-B” value was 8.222.

Consider `COc1ccc2oc(=O)c(-c3ccccc3)cc2c1` [Compound 62], for which the “pIC50 MAO-B” value is reported as 6.384.

For the compound `Cc1ccc2oc(=O)c(-c3ccc(Br)cc3)cc2c1` [Compound 64, 3-(4′-bromophenyl)-6-methylcoumarin], the “pIC50 MAO-B” value is reported as 9.412. The “MAO-B pIC50” value (data set compounds) is recorded as over 6.5.

Consider `COc1ccc2oc(=O)c(-c3ccc(Br)cc3)cc2c1` [Compound 66, 3-(4′-bromophenyl)-6-mehtoxycoumarin], for which the “pIC50 MAO-B” value is given as 9.495. Also, under “data set compounds”, the “MAO-B pIC50” value was over 6.5.

In the case of `COc1ccc2oc(=O)c(-c3cccc(Br)c3)cc2c1` [Compound 67, 3-(3′-bromophenyl)-6-methoxycoumarin], the “pIC50 MAO-B” value was 9.187. Besides, the “MAO-B pIC50” value (data set compounds) is over 6.5.

For `O=c1oc2ccc(O)cc2cc1-c1cccc(Br)c1` [Compound 69], the “pIC50 MAO-B” value was 8.097. Besides, the “MAO-B pIC50” value (data set compounds) is listed as over 6.5.

Turning to `O=c1oc2ccc(OC3CCCC3)cc2cc1-c1ccc(Br)cc1` [Compound 70], the “pIC50 MAO-B” value is on record as 5.154.

Consider `CC(=O)COc1ccc2oc(=O)c(-c3cccc(Br)c3)cc2c1` [Compound 71], for which the “pIC50 MAO-B” value is listed as 5.83.

As to `O=C(O)COc1ccc2oc(=O)c(-c3cccc(Br)c3)cc2c1` [Compound 74], the “pIC50 MAO-B” value was 8.62. Further, the “MAO-B pIC50” value (data set compounds) is over 6.5.

Regarding `COc1ccc(-c2cc3c(ccc4ccccc43)oc2=O)cc1` [Compound 75], the “pIC50 MAO-B” value is 7.237.

Regarding `COc1cccc(-c2cc3c(ccc4ccccc43)oc2=O)c1` [Compound 76], the “pIC50 MAO-B” value was 8.613. Moreover, the “MAO-B pIC50” value (data set compounds) is over 6.5.

With `COc1ccccc1-c1cc2c(ccc3ccccc32)oc1=O` [Compound 77], the “pIC50 MAO-B” value was 7.385.

Regarding `COc1ccc(-c2cc3c(ccc4ccccc43)oc2=O)cc1OC` [Compound 78], the “pIC50 MAO-B” value is listed as 7.312. Besides, the “MAO-B pIC50” value (data set compounds) is over 6.5.

Turning to `COc1cc(-c2cc3c(ccc4ccccc43)oc2=O)cc(OC)c1OC` [Compound 79], the “pIC50 MAO-B” value is on record as 5.851.

Take `Cc1cccc(-c2cc3c(ccc4ccccc43)oc2=O)c1` [Compound 80]: the “pIC50 MAO-B” value is reported as 5.62.

Regarding `O=c1oc2ccc3ccccc3c2cc1-c1ccccc1O` [Compound 83], the “pIC50 MAO-B” value was 5.496.

For `O=c1oc2ccc3ccccc3c2cc1-c1cc(O)cc(O)c1` [Compound 85], the “pIC50 MAO-B” value is 4.503.

In the case of `Cc1ccc2oc(=O)c(-c3ccccc3[N+](=O)[O-])cc2c1` [Compound 86], the “pIC50 MAO-B” value was 5.258.

As for `Cc1ccc2oc(=O)c(-c3cccc([N+](=O)[O-])c3)cc2c1` [Compound 87], the “pIC50 MAO-B” value is 8.222.

As for `Cc1ccc2oc(=O)c(-c3ccccc3N)cc2c1` [Compound 89], under “data set compounds”, the “MAO-B pIC50” value is 5.664.

Take `Cc1ccc2oc(=O)c(-c3cccc(N)c3)cc2c1` [Compound 90]: the “pIC50 MAO-B” value was 8.658.
